From ChEMBL document CHEMBL5154740, “Novel Aurora A and Protein Kinase C (α, β1, β2, and θ) Multitarget Inhibitors: Impact of Selenium Atoms on the Potency and Selectivity” (J Med Chem, 2022) come the findings set out here.

Assay [1] is filed under the species Homo sapiens. Briefly: Inhibition of CDK1/Cyclin B (unknown origin) at 50 nM by Z'LYTE screening method relative to control.
Assay [2] deals with CDK1/Cyclin A (Homo sapiens) (UniProt P06493+P20248). Description: Inhibition of CDK1/CyclinA (unknown origin) at 50 nM by Z'LYTE screening method relative to control. The format is protein-complex assay.
Assay [3] concerns the target T1, Protein kinase C zeta type (Homo sapiens) (UniProt Q05513).
T1 sequence (whole entry): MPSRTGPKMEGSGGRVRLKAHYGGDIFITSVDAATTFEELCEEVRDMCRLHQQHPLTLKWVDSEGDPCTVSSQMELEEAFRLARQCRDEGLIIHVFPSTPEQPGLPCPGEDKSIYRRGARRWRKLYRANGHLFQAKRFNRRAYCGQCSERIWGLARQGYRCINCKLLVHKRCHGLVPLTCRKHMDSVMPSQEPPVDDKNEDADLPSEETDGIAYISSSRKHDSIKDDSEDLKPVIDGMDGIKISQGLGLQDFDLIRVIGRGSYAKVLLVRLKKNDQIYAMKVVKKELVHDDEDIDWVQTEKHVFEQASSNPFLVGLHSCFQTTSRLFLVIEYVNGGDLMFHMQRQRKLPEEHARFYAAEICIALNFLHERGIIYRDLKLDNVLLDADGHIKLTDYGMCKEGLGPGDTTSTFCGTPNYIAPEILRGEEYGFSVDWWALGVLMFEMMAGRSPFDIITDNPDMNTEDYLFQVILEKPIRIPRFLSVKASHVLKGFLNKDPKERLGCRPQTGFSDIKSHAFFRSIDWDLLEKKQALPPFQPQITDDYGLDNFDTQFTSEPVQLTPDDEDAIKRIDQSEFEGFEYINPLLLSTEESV
Description: Inhibition of PKCzeta (unknown origin) at 50 nM by Z'LYTE screening method relative to control.

Assay [4] deals with Receptor tyrosine-protein kinase erbB-2 (Homo sapiens) (UniProt P04626). Description: Inhibition of ERBB2 (unknown origin) at 50 nM by Z'LYTE screening method relative to control.
The target in assay [5] is ALK tyrosine kinase receptor (Homo sapiens) (UniProt Q9UM73). Description: Inhibition of ALK (unknown origin) at 50 nM by Z'LYTE screening method relative to control.
In assay [6] the target is Tyrosine-protein kinase ABL1 (Homo sapiens) (UniProt P00519). Description: Inhibition of ABL1 (unknown origin) at 50 nM by Z'LYTE screening method relative to control.
In assay [7] the target is T2, Eukaryotic elongation factor 2 kinase (Homo sapiens) (UniProt O00418).
T2 sequence (whole entry): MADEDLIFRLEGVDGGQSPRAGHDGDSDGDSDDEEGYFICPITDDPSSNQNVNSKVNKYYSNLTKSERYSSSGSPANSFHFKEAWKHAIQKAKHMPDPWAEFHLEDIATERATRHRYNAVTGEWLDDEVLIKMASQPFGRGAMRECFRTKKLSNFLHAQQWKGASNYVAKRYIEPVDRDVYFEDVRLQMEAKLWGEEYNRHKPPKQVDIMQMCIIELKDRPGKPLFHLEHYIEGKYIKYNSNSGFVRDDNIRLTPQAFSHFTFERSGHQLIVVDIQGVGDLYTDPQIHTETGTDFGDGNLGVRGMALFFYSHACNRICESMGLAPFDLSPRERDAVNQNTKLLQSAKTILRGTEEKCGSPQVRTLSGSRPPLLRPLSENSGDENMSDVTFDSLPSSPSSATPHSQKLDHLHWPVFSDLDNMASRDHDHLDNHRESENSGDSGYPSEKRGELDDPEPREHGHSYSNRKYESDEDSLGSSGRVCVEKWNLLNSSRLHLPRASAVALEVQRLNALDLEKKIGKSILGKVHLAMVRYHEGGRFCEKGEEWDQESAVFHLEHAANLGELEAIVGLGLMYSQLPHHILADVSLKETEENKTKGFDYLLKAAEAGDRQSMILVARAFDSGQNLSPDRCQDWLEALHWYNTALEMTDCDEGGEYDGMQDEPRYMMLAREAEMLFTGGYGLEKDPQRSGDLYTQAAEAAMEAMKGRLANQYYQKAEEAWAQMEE
Briefly: Inhibition of EEF2K (unknown origin) at 50 nM by Z'LYTE screening method relative to control.

The target in assay [8] is Protein kinase C beta type (Homo sapiens) (UniProt P05771). Description: Inhibition of PKCbeta2 (unknown origin) at 50 nM by Z'LYTE screening method relative to control.
Assay [9] deals with Cell division control protein 42 homolog (Homo sapiens) (UniProt P60953). Description: Inhibition of CDC42 delta (unknown origin) at 50 nM by Z'LYTE screening method relative to control.
In assay [10] the target is RAC-alpha serine/threonine-protein kinase (Homo sapiens) (UniProt P31749). Briefly: Inhibition of AKT1 (unknown origin) at 50 nM by Z'LYTE screening method relative to control.
Assay [11] addresses Protein kinase C beta type (Homo sapiens) (UniProt P05771). Description: Inhibition of PKCbeta1 (unknown origin) at 50 nM by Z'LYTE screening method relative to control.
Assay [12] addresses DNA-dependent protein kinase catalytic subunit (Homo sapiens) (UniProt P78527). Description: Inhibition of DNA-PK (unknown origin) at 50 nM by Z'LYTE screening method relative to control.
Assay [13] addresses Focal adhesion kinase 1 (Homo sapiens) (UniProt Q05397). Briefly: Inhibition of FAK (unknown origin) at 50 nM by Z'LYTE screening method relative to control.
The target of assay [14] is Serine/threonine-protein kinase PAK 1 (Homo sapiens) (UniProt Q13153). Briefly: Inhibition of PAK1 (unknown origin) at 50 nM by Z'LYTE screening method relative to control.
Assay [15] concerns the target T3, Aurora kinase A (Homo sapiens) (UniProt O14965).
T3 sequence (whole entry): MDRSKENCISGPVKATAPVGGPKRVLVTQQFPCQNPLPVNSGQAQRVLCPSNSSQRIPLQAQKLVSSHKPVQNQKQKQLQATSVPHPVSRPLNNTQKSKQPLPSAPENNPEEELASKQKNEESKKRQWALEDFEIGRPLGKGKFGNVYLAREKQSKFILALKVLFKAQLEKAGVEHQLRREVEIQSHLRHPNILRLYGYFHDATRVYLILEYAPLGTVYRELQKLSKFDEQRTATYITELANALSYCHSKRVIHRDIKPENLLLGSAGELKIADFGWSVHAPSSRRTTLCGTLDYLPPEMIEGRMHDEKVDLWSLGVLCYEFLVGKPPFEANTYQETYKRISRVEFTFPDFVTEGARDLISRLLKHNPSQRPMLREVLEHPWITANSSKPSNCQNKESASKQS
Description: Inhibition of AURA (unknown origin) at 50 nM by Z'LYTE screening method relative to control.

Assay [16] has as its target Mitogen-activated protein kinase 11 (Homo sapiens) (UniProt Q15759). Briefly: Inhibition of MAPK11 (unknown origin) at 50 nM by Z'LYTE screening method relative to control.
The target of assay [17] is Fibroblast growth factor receptor 1 (Homo sapiens) (UniProt P11362). Description: Inhibition of FGFR1 (unknown origin) at 50 nM by Z'LYTE screening method relative to control.
Chain of Fibroblast growth factor receptor 1 (Homo sapiens) (P11362 22-822 limits assumed): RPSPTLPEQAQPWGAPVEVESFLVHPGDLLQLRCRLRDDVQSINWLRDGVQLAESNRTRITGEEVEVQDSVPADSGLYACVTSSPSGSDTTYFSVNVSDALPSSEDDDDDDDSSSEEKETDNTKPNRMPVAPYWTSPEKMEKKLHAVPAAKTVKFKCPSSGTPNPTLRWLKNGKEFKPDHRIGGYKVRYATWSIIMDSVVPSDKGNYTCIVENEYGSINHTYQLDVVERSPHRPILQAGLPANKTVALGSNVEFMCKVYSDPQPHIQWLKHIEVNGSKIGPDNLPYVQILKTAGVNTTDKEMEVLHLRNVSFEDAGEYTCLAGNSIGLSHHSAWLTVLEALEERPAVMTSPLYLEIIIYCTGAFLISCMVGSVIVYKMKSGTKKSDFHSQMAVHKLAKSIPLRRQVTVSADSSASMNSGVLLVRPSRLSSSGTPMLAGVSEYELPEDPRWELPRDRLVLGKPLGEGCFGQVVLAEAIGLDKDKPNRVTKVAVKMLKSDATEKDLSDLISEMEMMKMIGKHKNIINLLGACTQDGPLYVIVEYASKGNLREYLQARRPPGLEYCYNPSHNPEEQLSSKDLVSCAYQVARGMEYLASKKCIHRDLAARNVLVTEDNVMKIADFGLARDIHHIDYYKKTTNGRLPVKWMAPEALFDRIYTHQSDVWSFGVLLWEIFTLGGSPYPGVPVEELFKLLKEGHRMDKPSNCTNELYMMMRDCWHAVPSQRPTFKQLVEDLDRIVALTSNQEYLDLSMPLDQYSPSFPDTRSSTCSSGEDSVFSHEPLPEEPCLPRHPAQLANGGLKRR

Chain of ALK tyrosine kinase receptor (Homo sapiens) (Q9UM73 19-1620 limits assumed): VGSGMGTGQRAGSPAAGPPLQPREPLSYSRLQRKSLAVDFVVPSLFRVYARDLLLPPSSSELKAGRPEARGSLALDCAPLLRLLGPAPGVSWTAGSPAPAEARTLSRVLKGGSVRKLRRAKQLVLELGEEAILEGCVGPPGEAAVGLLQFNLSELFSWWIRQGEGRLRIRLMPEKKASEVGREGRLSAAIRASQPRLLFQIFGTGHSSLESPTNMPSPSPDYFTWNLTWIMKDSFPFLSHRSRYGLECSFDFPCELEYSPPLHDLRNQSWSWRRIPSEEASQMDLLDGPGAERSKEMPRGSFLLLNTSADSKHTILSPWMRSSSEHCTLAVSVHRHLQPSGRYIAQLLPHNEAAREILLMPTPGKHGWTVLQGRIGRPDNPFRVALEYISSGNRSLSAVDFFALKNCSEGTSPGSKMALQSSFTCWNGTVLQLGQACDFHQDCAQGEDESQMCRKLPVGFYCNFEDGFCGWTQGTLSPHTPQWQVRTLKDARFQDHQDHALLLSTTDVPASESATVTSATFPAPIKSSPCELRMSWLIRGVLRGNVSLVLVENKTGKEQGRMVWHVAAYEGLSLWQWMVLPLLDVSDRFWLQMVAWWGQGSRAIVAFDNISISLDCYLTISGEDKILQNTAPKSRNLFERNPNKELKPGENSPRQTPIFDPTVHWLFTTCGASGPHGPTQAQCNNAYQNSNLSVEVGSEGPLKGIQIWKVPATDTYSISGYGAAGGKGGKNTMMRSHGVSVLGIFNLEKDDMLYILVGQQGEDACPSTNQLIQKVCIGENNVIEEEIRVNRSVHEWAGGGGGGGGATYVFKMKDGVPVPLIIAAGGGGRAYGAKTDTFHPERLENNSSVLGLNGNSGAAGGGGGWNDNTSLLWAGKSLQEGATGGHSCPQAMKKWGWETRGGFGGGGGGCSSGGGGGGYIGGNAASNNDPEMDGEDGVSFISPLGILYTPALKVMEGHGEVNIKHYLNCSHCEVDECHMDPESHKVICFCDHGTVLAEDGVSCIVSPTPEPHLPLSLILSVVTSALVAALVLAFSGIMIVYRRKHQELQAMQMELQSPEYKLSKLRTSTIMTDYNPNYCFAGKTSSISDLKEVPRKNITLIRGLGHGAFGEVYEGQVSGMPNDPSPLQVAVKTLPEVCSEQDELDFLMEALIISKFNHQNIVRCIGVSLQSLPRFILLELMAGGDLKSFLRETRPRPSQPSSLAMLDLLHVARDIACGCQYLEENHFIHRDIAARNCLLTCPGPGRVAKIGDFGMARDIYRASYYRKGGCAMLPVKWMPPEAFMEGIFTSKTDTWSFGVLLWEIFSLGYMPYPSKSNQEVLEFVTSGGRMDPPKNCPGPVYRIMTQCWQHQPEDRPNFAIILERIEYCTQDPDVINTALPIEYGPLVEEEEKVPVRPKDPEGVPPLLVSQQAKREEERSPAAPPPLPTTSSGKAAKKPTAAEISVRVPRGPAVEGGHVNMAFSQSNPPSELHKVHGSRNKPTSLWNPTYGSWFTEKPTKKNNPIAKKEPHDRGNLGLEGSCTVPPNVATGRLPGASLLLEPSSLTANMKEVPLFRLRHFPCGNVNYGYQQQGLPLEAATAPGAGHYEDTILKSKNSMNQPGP
Chain of Focal adhesion kinase 1 (Homo sapiens) (Q05397 2-1052 limits assumed): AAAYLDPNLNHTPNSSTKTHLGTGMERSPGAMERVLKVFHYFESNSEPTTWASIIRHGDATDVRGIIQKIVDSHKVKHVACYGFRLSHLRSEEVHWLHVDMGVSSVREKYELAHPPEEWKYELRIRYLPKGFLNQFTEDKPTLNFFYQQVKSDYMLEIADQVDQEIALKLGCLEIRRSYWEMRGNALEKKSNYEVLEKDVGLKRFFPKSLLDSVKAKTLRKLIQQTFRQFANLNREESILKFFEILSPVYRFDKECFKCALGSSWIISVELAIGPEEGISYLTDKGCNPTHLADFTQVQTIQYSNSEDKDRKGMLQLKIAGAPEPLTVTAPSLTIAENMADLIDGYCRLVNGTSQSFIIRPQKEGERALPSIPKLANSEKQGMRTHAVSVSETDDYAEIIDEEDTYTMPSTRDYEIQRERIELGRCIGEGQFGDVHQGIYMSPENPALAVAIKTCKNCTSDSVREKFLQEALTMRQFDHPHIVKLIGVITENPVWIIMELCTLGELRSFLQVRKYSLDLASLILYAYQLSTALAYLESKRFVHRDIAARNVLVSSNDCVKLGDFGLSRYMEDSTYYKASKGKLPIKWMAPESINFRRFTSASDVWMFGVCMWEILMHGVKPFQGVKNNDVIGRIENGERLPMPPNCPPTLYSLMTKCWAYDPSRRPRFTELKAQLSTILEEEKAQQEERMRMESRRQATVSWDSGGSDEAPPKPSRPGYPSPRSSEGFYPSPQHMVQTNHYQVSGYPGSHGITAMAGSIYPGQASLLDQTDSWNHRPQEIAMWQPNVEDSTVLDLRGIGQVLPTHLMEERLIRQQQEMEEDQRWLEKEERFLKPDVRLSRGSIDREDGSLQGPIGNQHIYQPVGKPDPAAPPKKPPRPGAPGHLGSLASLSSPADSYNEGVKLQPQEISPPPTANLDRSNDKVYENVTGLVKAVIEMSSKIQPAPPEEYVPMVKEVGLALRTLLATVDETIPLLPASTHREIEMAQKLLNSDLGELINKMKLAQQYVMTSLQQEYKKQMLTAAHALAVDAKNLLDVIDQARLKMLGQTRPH
Chain of Protein kinase C beta type (Homo sapiens) (P05771 2-671 limits assumed): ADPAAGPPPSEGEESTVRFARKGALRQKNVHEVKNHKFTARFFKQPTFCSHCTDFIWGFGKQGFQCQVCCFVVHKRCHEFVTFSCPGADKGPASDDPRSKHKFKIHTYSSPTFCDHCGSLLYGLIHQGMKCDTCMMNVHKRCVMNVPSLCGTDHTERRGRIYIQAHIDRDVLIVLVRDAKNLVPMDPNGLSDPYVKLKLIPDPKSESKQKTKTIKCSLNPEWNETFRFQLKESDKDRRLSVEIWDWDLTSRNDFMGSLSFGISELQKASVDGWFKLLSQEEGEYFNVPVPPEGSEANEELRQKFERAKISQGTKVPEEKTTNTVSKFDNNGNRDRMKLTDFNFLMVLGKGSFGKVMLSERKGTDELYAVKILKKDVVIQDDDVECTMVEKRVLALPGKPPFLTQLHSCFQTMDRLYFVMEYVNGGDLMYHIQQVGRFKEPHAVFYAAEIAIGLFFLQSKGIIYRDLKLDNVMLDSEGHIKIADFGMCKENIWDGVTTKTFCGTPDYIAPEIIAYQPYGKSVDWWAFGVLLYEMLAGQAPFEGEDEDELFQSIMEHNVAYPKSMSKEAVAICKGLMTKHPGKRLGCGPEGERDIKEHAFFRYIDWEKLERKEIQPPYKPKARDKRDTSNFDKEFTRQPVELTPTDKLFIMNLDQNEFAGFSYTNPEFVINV
Chain of Serine/threonine-protein kinase PAK 1 (Homo sapiens) (Q13153 whole entry): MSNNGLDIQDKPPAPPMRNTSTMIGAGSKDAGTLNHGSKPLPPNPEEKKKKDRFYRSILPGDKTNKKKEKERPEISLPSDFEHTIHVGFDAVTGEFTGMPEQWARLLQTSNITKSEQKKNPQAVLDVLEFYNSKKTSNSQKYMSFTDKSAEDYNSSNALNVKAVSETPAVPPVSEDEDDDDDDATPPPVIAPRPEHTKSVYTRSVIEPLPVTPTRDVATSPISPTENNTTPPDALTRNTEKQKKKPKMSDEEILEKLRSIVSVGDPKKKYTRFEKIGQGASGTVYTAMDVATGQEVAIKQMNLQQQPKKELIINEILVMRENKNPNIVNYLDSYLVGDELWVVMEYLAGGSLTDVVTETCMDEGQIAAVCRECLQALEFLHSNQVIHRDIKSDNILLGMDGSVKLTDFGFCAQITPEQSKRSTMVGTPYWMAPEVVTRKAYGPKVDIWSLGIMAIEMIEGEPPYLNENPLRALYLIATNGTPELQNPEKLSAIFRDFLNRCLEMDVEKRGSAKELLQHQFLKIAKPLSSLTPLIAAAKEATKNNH
Chain of Cell division control protein 42 homolog (Homo sapiens) (P60953 whole entry, looked up): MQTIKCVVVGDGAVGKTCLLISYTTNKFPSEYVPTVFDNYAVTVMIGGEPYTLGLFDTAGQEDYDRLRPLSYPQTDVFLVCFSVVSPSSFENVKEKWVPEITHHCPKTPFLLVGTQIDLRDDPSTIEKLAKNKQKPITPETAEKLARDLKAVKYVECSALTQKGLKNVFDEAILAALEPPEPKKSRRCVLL

Consider `O=c1c2ccccc2[se]n1-c1nc(Nc2ccccc2)c2nc[nH]c2n1`, for which the inhibition in assay [1] came to 0%; in [2], 2%; in assay [3], 4%; in assay [4], 0%; in assay [5], 1%; in assay [6] it was 0%. The inhibition turned out to be 1% in assay [7]; 28% in [8]; 0% in assay [9]; 2% in assay [10]; 6% in assay [11]; 0% in [12]. The inhibition in assay [13] is 0%; in assay [14], 0%; in assay [15], 6%; in [16], 2%; in assay [17], 0%.
As for `CCN(CC)CCCC(C)Nc1nc(-n2[se]c3ccccc3c2=O)nc2[nH]cnc12` (centres undefined), the inhibition in [1] came out at 0%; in assay [2], 3%; in assay [3], 9%; in assay [4] it was 1%; in assay [5], 2%; in assay [6], 11%. Moreover, the inhibition in [7] amounted to 0%; in assay [8], 12%; in assay [9] it was 0%; in assay [10], 9%; in [11] it was 8%; in assay [12], 0%. Also, the inhibition was found to be 4% in assay [13]; 14% in [14]; 9% in assay [15]; 3% in assay [16]; 0% in [17].
On to `O=C1c2ccccc2CN1c1nc(NC2CCCCC2)c2nc[nH]c2n1`, for which the inhibition in assay [1] turned out to be 0%; in [2] it was 2%; in [3], 9%; in assay [4] it was 0%; in assay [5], 1%; in assay [6], 0%. For the same compound, the inhibition in assay [7] came to 1%; in [8], 5%; in assay [9], 0%; in assay [10] it was 2%; in assay [11], 5%; in assay [12] it was 0%. For the same compound, the inhibition in assay [13] was determined as 0%; in [14] it was 0%; in assay [15], 4%; in assay [16], 1%; in assay [17], 0%.
`CCCNc1nc(-n2[se]c3ccccc3c2=O)nc2[nH]cnc12`: the inhibition in [1] came to 1%; in [2], 2%; in [3], 3%; in assay [4] it was 0%; in [5], 1%; in assay [6], 0%. In addition, the inhibition in assay [7] is 0%; in [8] it was 95%; in assay [9] it was 1%; in [10] it was 2%; in assay [11], 2%; in assay [12], 0%. For the same compound, the inhibition amounted to 0% in assay [13]; 1% in [14]; 4% in [15]; 4% in assay [16]; 0% in assay [17].
For `C[C@@H]1[C@H]2C[C@@H](C[C@H]1Nc1nc(-n3[se]c4ccccc4c3=O)nc3[nH]cnc13)C2(C)C`, the inhibition came out at 1% in [1]; 2% in [2]; 7% in assay [3]; 0% in assay [4]; 1% in assay [5]; 1% in assay [6]. For the same compound, the inhibition is 2% in assay [7]; 5% in assay [8]; 0% in [9]; 0% in assay [10]; 5% in [11]; 0% in assay [12]. Further, the inhibition in assay [13] stood at 0%; in assay [14], 1%; in assay [15], 3%; in [16] it was 4%; in assay [17] it was 0%.
Consider `CCN(CC)CCCC(C)Nc1nc(N2Cc3ccccc3C2=O)nc2[nH]cnc12` (centres undefined), for which the inhibition in assay [1] worked out at 1%; in assay [2] it was 1%; in assay [3], 7%; in [4], 0%; in [5], 0%; in [6], 1%. Further, the inhibition in [7] turned out to be 1%; in [8], 25%; in assay [9], 0%; in assay [10], 2%; in [11], 5%; in [12] it was 0%. Moreover, the inhibition in [13] amounted to 0%; in [14], 2%; in assay [15] it was 3%; in assay [16] it was 3%; in assay [17], 0%.
Take `O=c1c2ccccc2[se]n1-c1nc(NC2CCCCC2)c2nc[nH]c2n1`: the inhibition is 0% in [1]; 3% in [2]; 9% in assay [3]; 0% in assay [4]; 1% in assay [5]; 1% in assay [6]. Moreover, the inhibition in assay [7] was 1%; in [8] it was 62%; in [9], 0%; in assay [10] it was 2%; in [11] it was 59%; in [12], 0%. For the same compound, the inhibition in assay [13] was determined as 0%; in assay [14], 0%; in [15], 84%; in assay [16] it was 3%; in assay [17] it was 0%.
